As usually defined, the CC50 is the concentration giving 50% cytotoxicity. What is called pEC50 is the negative decadic logarithm of the EC50, by convention in mol/L.

Common to all, as to format: cell-based
Data set [1] in a line: Cytotoxicity, HepG2 cells, Resazurin assay. The conditions noted are these: human. (In general: Resazurin is reduced to fluorescent resorufin, in cell work by metabolically active cells.)
Data set [2] has as its system HBV. As to the kind of experiment: anti-HBV activity, HepG2.2.15 stable transfected cell line, HBV DNA from secreted virions by realtime PCR. The conditions noted are these: Hepatitis B virus, 144 h, HepG2.2.15 cells, 6 days of treatment.
The test system of data set [3] is HBV. As to the kind of experiment: anti HBV activity, HepG2.117 inducibly HBV producing cell line (Tet-off), intracellular HBV DNA by realtime PCR. The conditions noted are these: Hepatitis B virus, 72 h, HepG2.117 cells, 3 days of treatment.

pEC50: −log10 of the molar value.

Turning to `C[C@@H](NS(=O)(=O)c1cn(C)c(C(=O)Nc2ccnc(C#N)c2)c1Cl)C(C)(F)F` [Compound 96, 3-chloro-N-(2-cyano-4-pyridyl)-4-[[(1R)-2,2-difluoro-1-methyl-propyl]sulfamoyl]-1-methyl-pyrrole-2-carboxamide], in data set [1], the CC50 at 4 days is greater than 25 µM. The pEC50 in the data set with HBV [2] and in the data set on HBV [3] was 7.40 throughout.

In turn, `CC[C@H](NS(=O)(=O)c1cc(C(=O)Nc2ccnc(C#N)c2)n(C)c1)C(F)(F)F` [Compound 41, N-(2-cyano-4-pyridyl)-1-methyl-4-[[(1S)-1-(trifluoromethyl)propyl]-sulfamoyl]pyrrole-2-carboxamide] showed a CC50 at 4 days in data set [1] greater than 25 µM. For the same compound, the values for the negative-log EC50 (pEC50) in the data set with HBV [2] and in the data set with HBV [3] were 7.15 and 7.00, respectively.

In the case of `C[C@@H](NS(=O)(=O)c1cn(C)c(C(=O)Nc2cnc(F)c(Br)c2)c1F)C(F)(F)F` [Compound 29, N-(5-bromo-6-fluoro-3-pyridyl)-3-fluoro-1-methyl-4-[[(1R)-2,2,2-trifluoro-1-methyl-ethyl]sulfamoyl]pyrrole-2-carboxamide], the CC50 at 4 days in data set [1] is greater than 25 µM. Besides, the figures for the pEC50 in the data set with HBV [2] and in the data set on HBV [3] were 7.40 and 7.22, respectively.

For the compound `CC[C@H](NS(=O)(=O)c1cc(C(=O)Nc2ccnc(Cl)c2)n(C)c1)C(F)(F)F` [Compound 47, N-(2-chloro-4-pyridyl)-1-methyl-4-[[(1S)-1-(trifluoromethyl)propyl]-sulfamoyl]pyrrole-2-carboxamide], in data set [1], the CC50 at 4 days was greater than 25 µM. In addition, the results for the pEC50 in the data set on HBV [2] and in the data set with HBV [3] were 7.22 and 7.40, respectively.

Compound `CC[C@H](NS(=O)(=O)c1cn(C)c(C(=O)Nc2ccnc(C#N)c2)c1Cl)C(F)(F)F` [Compound 37, 3-chloro-N-(2-cyano-4-pyridyl)-1-methyl-4-[[(1S)-1-(trifluoromethyl)-propyl]sulfamoyl]pyrrole-2-carboxamide] had a CC50 at 4 days in data set [1] greater than 25 µM. The pEC50 was 6.82 in the data set on HBV [2] and 6.70 in the data set on HBV [3].

For the compound `C[C@@H](NS(=O)(=O)c1cn(C)c(C(=O)Nc2ccnc(C#N)c2F)c1Cl)C(F)(F)F` [Compound 143, 3-chloro-N-(2-cyano-3-fluoro-4-pyridyl)-1-methyl-4-[[(1R)-2,2,2-trifluoro-1-methyl-ethyl]sulfamoyl]pyrrole-2-carboxamide], in data set [1], the CC50 at 4 days was greater than 25 µM. The pEC50 in the data set with HBV [2] was 6.74; with HBV [3], 7.70.

For `C[C@@H](NS(=O)(=O)c1cn(C)c(C(=O)Nc2ccnc(C(F)(F)F)c2)c1F)C(C)(F)F` [Compound 60, 4-[[(1R)-2,2-difluoro-1-methyl-propyl]sulfamoyl]-3-fluoro-1-methyl-N-[2-(trifluoromethyl)-4-pyridyl]pyrrole-2-carboxamide], the half-maximal cytotoxic concentration (CC50) at 4 days in data set [1] was greater than 25 µM. Further, the results for the pEC50 with HBV [2] and with HBV [3] were 6.62 and 7.40, respectively.

Take `Cn1cc(S(=O)(=O)NC2(C(F)(F)F)CC2)cc1C(=O)Nc1ccnc(C#N)c1` [Compound 49, N-(2-cyano-4-pyridyl)-1-methyl-4-[[1-(trifluoromethyl)cyclopropyl]-sulfamoyl]pyrrole-2-carboxamide]: the cytotoxic concentration (CC50) at 4 days in data set [1] is greater than 25 µM. The pEC50 with HBV [2] and with HBV [3] was 6.96 each time.

In turn, `C[C@@H](NS(=O)(=O)c1cn(C)c(C(=O)Nc2cc(F)nc(F)c2)c1Cl)C(F)(F)F` [Compound 35, 3-chloro-N-(2,6-difluoro-4-pyridyl)-1-methyl-4-[[(1R)-2,2,2-trifluoro-1-methyl-ethyl]sulfamoyl]pyrrole-2-carboxamide] showed a CC50 at 4 days in data set [1] greater than 25 µM. Further, the pEC50 in the data set on HBV [2] is 8.30; in the data set with HBV [3], 8.00.

On to `Cn1cc(S(=O)(=O)NC2(C(F)(F)F)CC2)cc1C(=O)Nc1ccnc(Cl)c1` [Compound 52, N-(2-chloro-4-pyridyl)-1-methyl-4-[[1-(trifluoromethyl)cyclopropyl]-sulfamoyl]pyrrole-2-carboxamide], for which the CC50 at 4 days in data set [1] is greater than 25 µM. Also, the pEC50 with HBV [3] is 7.10.

For `Cn1cc(S(=O)(=O)NC2(C(F)(F)F)CCC2)c(F)c1C(=O)Nc1ccnc(C(F)F)c1F` [Compound 165, N-[2-(difluoromethyl)-3-fluoro-4-pyridyl]-3-fluoro-1-methyl-4-[[1-(trifluoromethyl)cyclobutyl]sulfamoyl]pyrrole-2-carboxamide], in data set [1], the CC50 at 4 days was greater than 25 µM. The pEC50 with HBV [3] is 8.52.

`Cn1cc(S(=O)(=O)NC2(CO)COC2)c(Cl)c1C(=O)Nc1ccnc(Cl)c1` [Compound 92]: the CC50 at 4 days in data set [1] was greater than 25 µM. Also, in the data set with HBV [3], the pEC50 was 6.36.

`Cc1c(S(=O)(=O)N[C@H](C)C(F)(F)F)c(F)c(C(=O)Nc2ccnc(C#N)c2)n1C` [Compound 71, N-(2-cyano-4-pyridyl)-3-fluoro-1,5-dimethyl-4-[[(1R)-2,2,2-trifluoro-1-methyl-ethyl]sulfamoyl]pyrrole-2-carboxamide] showed a cytotoxic concentration (CC50) at 4 days in data set [1] greater than 25 µM. This compound showed a pEC50 in the data set with HBV [3] of 7.70.

In data set [1], `CC(C)NS(=O)(=O)c1cn(C)c(C(=O)Nc2ccnc(Cl)c2)c1F` [Compound 79, N-(2-chloro-4-pyridyl)-3-fluoro-4-(isopropylsulfamoyl)-1-methyl-pyrrole-2-carboxamide] displayed a half-maximal cytotoxic concentration (CC50) at 4 days greater than 25 µM. Besides, in the data set on HBV [3], the pEC50 was 6.82.

Consider `C[C@@H](NS(=O)(=O)c1cn(C)c(C(=O)Nc2ccc(F)cn2)c1Cl)C(F)(F)F` [Compound 51, 3-chloro-N-(5-fluoro-2-pyridyl)-1-methyl-4-[[(1R)-2,2,2-trifluoro-1-methyl-ethyl]sulfamoyl]pyrrole-2-carboxamide], for which the 50% cytotoxic concentration (CC50) at 4 days in data set [1] is greater than 25 µM. Moreover, in the data set on HBV [3], the pEC50 was 6.22.

The compound `CC[C@@H](NS(=O)(=O)c1cn(C)c(C(=O)Nc2ccnc(Cl)c2F)c1Cl)C(F)(F)F` [Compound 112, 3-chloro-N-(2-chloro-3-fluoro-4-pyridyl)-1-methyl-[[(1R)-1-(trifluoromethyl)propyl]sulfamoyl]pyrrole-2-carboxamide] registered a CC50 at 4 days in data set [1] greater than 25 µM. The compound further gave a pEC50 with HBV [3] of 7.70.

In turn, `Cn1cc(S(=O)(=O)NC2(C(F)(F)F)CCC2)c(F)c1C(=O)Nc1ccnc(Cl)c1F` [Compound 120, N-(2-chloro-3-fluoro-4-pyridyl)-3-fluoro-1-methyl-4-[[1-(trifluoromethyl)cyclobutyl]sulfamoyl]pyrrole-2-carboxamide] showed a CC50 at 4 days in data set [1] greater than 25 µM. Further, the negative-log EC50 (pEC50) in the data set on HBV [3] was 8.30.

`Cn1cc(S(=O)(=O)N[C@H]2C[C@@H](O)C2)c(Cl)c1C(=O)Nc1ccnc(Cl)c1` [Compound 93, 3-chloro-N-(2-chloro-4-pyridyl)-4-[(3-hydroxycyclobutyl)sulfamoyl]-1-methyl-pyrrole-2-carboxamide]: in data set [1], the CC50 at 4 days was greater than 25 µM. In the data set on HBV [3], this compound showed a negative logarithm of the EC50 (pEC50) of 6.48.

Take `C[C@@H](NS(=O)(=O)c1cn(C)c(C(=O)Nc2cc(F)nc(F)c2F)c1Cl)C(F)(F)F` [Compound 43, 3-chloro-1-methyl-4-[[(1R)-2,2,2-trifluoro-1-methyl-ethyl]sulfamoyl]-N-(2,3,6-trifluoro-4-pyridyl)pyrrole-2-carboxamide]: in data set [1], the CC50 at 4 days is greater than 25 µM. The negative logarithm of the EC50 (pEC50) in the data set on HBV [3] was 7.10.

In the case of `Cn1cc(S(=O)(=O)NC2(C)CC(F)(F)C2)c(Cl)c1C(=O)Nc1ccnc(Br)c1F` [Compound 161, N-(2-bromo-3-fluoro-4-pyridyl)-3-chloro-4-[(3,3-difluoro-1-methyl-cyclobutyl)sulfamoyl]-1-methyl-pyrrole-2-carboxamide], the CC50 at 4 days in data set [1] was greater than 25 µM. Also, in the data set with HBV [3], the pEC50 was 8.00.
